Target: T1, Bovine liver catalase (BLC) (Bos taurus, UniProt P00432)
T1 construct: gene CAT; native homotetramer from bovine liver (Sigma-Aldrich)
T1 sequence (P00432 2-527): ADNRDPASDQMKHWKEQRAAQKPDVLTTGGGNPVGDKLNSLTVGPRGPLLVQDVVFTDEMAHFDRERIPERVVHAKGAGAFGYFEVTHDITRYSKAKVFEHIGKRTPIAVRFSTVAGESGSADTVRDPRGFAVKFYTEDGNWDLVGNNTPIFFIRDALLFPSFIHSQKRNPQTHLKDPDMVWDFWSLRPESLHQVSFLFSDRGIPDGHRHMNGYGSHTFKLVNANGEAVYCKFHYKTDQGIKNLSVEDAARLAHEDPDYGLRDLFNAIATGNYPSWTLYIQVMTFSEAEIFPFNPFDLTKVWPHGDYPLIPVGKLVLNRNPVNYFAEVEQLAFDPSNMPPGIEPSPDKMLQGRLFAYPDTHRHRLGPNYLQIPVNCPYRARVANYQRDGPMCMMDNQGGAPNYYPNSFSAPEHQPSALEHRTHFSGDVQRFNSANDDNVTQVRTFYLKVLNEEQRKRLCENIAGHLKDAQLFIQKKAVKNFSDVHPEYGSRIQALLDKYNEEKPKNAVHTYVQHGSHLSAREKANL
Assay: H2O2 decomposition at A240 with purified BLC; supported by fluorescence quenching (K =[…] ^-1 at […] °C, n = […])
Format: biochemical

`Oc1ccc(/C=C/c2cc(O)cc(O)c2)cc1` [tRES, trans resveratrol] gave an IC50 of 8.1 µM.

Reference: publication PMC5651055, “Effects of Resveratrol on the Structure and Catalytic Function of Bovine Liver catalase (BLC): Spectroscopic and Theoretical Studies” (Advanced Pharmaceutical Bulletin, 2017)
